Test results from the NIST ThermoML archive (doi:10.1007/s10765-009-0593-3).

Test: xn = mol fraction of the nth substance listed
Conditions: 101 kPa, Liquid; for speed of sound: Pulse-echo method

CCCOCC(C)OCC(C)O (stereo not given) [1-(1-methyl-2-propoxyethoxy)-2-propanol] + CCCCNCCCC
Conditions | mass density, 288.15 K [kg/m3] | mass density, 293.15 K [kg/m3] | mass density, 298.15 K [kg/m3] | mass density, 303.15 K [kg/m3] | mass density, 308.15 K [kg/m3] | speed of sound, 288.15 K [m/s] | speed of sound, 293.15 K [m/s] | speed of sound, 298.15 K [m/s] | speed of sound, 303.15 K [m/s] | speed of sound, 308.15 K [m/s]
x1 = 0.123 | 792.458 | 788.243 | 783.999 | 779.716 | 775.539 | 1291.2 | 1271.6 | 1252 | 1232.1 | 1212.2
x1 = 0.1582 | 798.993 | 794.736 | 790.406 | 786.126 | 781.949 | 1293.2 | 1273.2 | 1253.7 | 1233.9 | 1214
x1 = 0.1913 | 804.954 | 800.654 | 796.281 | 791.94 | 787.756 | 1294.9 | 1274.7 | 1255.1 | 1235.5 | 1215.5
x1 = 0.2541 | 815.956 | 811.61 | 807.16 | 802.761 | 798.492 | 1297.6 | 1277.1 | 1257.5 | 1238.1 | 1218.1
x1 = 0.3195 | 827.1 | 822.71 | 818.293 | 813.903 | 809.461 | 1299.8 | 1279.3 | 1259.6 | 1240.4 | 1220.4
x1 = 0.3623 | 834.198 | 829.803 | 825.41 | 821.074 | 816.52 | 1300.9 | 1280.5 | 1260.8 | 1241.7 | 1221.7
x1 = 0.4155 | 842.79 | 838.381 | 834.053 | 829.782 | 825.107 | 1302 | 1281.8 | 1262 | 1243 | 1223.1
x1 = 0.4543 | 848.877 | 844.447 | 840.151 | 835.948 | 831.19 | 1302.6 | 1282.7 | 1262.9 | 1243.9 | 1223.9
x1 = 0.4974 | 855.422 | 850.98 | 846.721 | 842.533 | 837.752 | 1303.2 | 1283.5 | 1263.7 | 1244.7 | 1224.7
x1 = 0.5491 | 863.031 | 858.573 | 854.308 | 850.092 | 845.325 | 1303.6 | 1284.3 | 1264.5 | 1245.6 | 1225.6
x1 = 0.6027 | 870.648 | 866.201 | 861.902 | 857.606 | 852.894 | 1304 | 1285.1 | 1265.2 | 1246.4 | 1226.4
x1 = 0.6687 | 879.855 | 875.389 | 871.011 | 866.586 | 861.99 | 1304.3 | 1285.8 | 1266 | 1247.1 | 1227.2
x1 = 0.6962 | 883.669 | 879.204 | 874.806 | 870.321 | 865.762 | 1304.4 | 1286 | 1266.3 | 1247.4 | 1227.5
x1 = 0.7504 | 891.256 | 886.786 | 882.325 | 877.785 | 873.301 | 1304.6 | 1286.4 | 1266.8 | 1248 | 1228
x1 = 0.7997 | 898.225 | 893.775 | 889.311 | 884.771 | 880.284 | 1304.8 | 1286.7 | 1267.3 | 1248.4 | 1228.5
x1 = 0.8657 | 907.649 | 903.208 | 898.805 | 894.377 | 889.838 | 1305.3 | 1287 | 1267.9 | 1249 | 1229.1
x1 = 0.8963 | 911.923 | 907.504 | 903.128 | 898.789 | 894.205 | 1305.5 | 1287.2 | 1268.2 | 1249.3 | 1229.4
x1 = 0.9589 | 920.017 | 915.65 | 911.3 | 907.024 | 902.428 | 1306.3 | 1287.4 | 1268.8 | 1250 | 1230
